Assays:
HCV GT1a replicon cells = test: HCV replicon assay, GT1a replicon cells; format: cell-based; conditions: Hepatitis C virus, 72 hours incubation, luciferase reporter or NEO gene qPCR readout, read-out: EC50 against HCV 1a genotype
Procedure: (§1) An HCV Replicon assay was utilized in the present disclosure, and was prepared, developed and validated as described in Science, 1999, 285 (5424), 110-3 and J. Virol., 2003, 77 (5), 3007-19.
(§2) HCV GT1a, GT1b and GT2a replicon cells were used to test the currently described compound series as well as wild-type cells HCV 1b and resistant cells Y^93H, L31F, P32L and I302V. GT1a and CT1b are HCV Replicon System which is transfected HCV 1a, 1b genotype respectively.
(§3) 1. Testing EC50 of the Compounds by Luciferase Assay
(§4) The GT1b cells and GT1a cells were seeded into 96-well plates (8,000 cells in 125 μl/well) respectively; each compound was diluted to desired concentration using 5-fold serial dilutions protocol, 10 dose in duplicate, and added to wells with POD™ 810 Plate Assembler. The final concentration of DMSO was 0.5%; the plates were incubated in a CO2 incubator for 72 hours; after that, 40 μl of Luciferase assay substrate (Promega Bright-Glo) was added to each well, and detected by a chemiluminescence detection system (Topcount Microplate Scintillation and Luminescence Counter) 5 minutes later; data analysis.
(§5) 2. Testing EC50 of the Compounds by Detecting Antibiotic G418 Resistance Gene NEO Gene
(§6) The GT1b cells and GT1a cells were seeded into 96-well plates (8,000 cells in 125 μl/well) respectively; each compound was diluted to desired concentration using 5-fold serial dilutions protocol, 10 dose in duplicate, and added to wells with POD™ 810 Plate Assembler., the final concentration of DMSO was 0.5%; the cells were incubated in a CO2 incubator for 72 hours; quantitative PCR. • Sample preparation: the supernatant was removed, 100 μl of FCW buffer solution was added to each well, washed carefully and discarded the solution; 50 μl of lysate FCP was added to each well, the cells was lysed as PCR template and diluted with DEPC water. • Quantitative PCR: preparation of reaction mixture according to PCR system; the reaction mixture was dispensed into a 384-well PCR reaction plate (specially for quantitative); and a standard template which was diluted in proportion was distributed into the plate; and the sample template was distributed into the plate; then the 384-well plate was sealed with closure plate membrane; the […] PCR machine was operated by procedures; data analysis.
(§7) 3. Data Processing: The EC50 Values of Compounds were Analyzed by GraphPad Prism Software.

HCV GT1b replicon cells = test: HCV replicon assay, GT1b replicon cells; format: cell-based; conditions: Hepatitis C virus, 72 hours incubation, luciferase reporter or NEO gene qPCR readout, read-out: EC50 against HCV 1b genotype
Procedure: as §1, §2, §3, §4, §5, §6, §7

Structure (SMILES)	EC50 (HCV GT1a replicon cells) [nM]	EC50 (HCV GT1b replicon cells) [nM]
COC(=O)N[C@H](C(=O)N1CCC[C@H]1c1ncc(-c2ccc(-c3ccc(-c4cnc([C@@H]5CCCN5C(=O)[C@@H](NC(=O)OC)C(C)C)[nH]4)c4c3C3CCC4C3)c(F)c2)[nH]1)C(C)C (stereo partly drawn) [Example 4]	0.497	0.007
COC(=O)N[C@H](C(=O)N1CCC[C@H]1c1ncc(-c2ccc(-c3ccc(-c4ccc5nc([C@@H]6CCCN6C(=O)[C@@H](NC(=O)OC)C(C)C)[nH]c5c4)cc3)c3c2C2CCC3C2)[nH]1)C(C)C (stereo partly drawn) [Example 47]	0.053	0.013
COC(=O)N[C@H](C(=O)N1C[C@@H](F)CC1c1ncc(-c2ccc(-c3ccc(-c4cnc(C5C[C@H](F)CN5C(=O)[C@@H](NC(=O)OC)C(C)C)[nH]4)c4c3C3CCC4C3)cc2)[nH]1)C(C)C (stereo partly drawn) [Example 13]	0.53	0.034
COC(=O)N[C@H](C(=O)N1CCC[C@H]1c1ncc(-c2ccc(-c3ccc(-c4cnc([C@@H]5CCCN5C(=O)[C@@H](NC(=O)OC)C(C)C)[nH]4)c4c3C3CCC4C3)c3c2CCC3)[nH]1)C(C)C (stereo partly drawn) [Example 67]	0.953	0.053
COC(=O)N[C@H](C(=O)N1CCC[C@H]1c1ncc(-c2ccc(-c3ccc(-c4cnc([C@@H]5CCCN5C(=O)[C@@H](NC(=O)OC)C(C)C)[nH]4)c4c3C3CCC4CC3)cc2)[nH]1)C(C)C [Example 22]	11.4	0.004
COC(=O)N[C@H](C(=O)N1CCC[C@H]1c1ncc(-c2ccc(-c3nnc(-c4ccc5[nH]c([C@@H]6CCCN6C(=O)[C@@H](NC(=O)OC)C(C)C)nc5c4)c4c3C3CCC4C3)cc2)[nH]1)C(C)C (stereo partly drawn) [Example 12]	0.658	0.373
CC[C@H](C)[C@H](NC(=O)OC)C(=O)N1CCC[C@H]1c1nc2ccc(-c3ccc(-c4ccc(-c5cnc([C@@H]6CCCN6C(=O)[C@@H](NC(=O)OC)C(C)C)[nH]5)cc4)c4c3C3CCC4N3C)cc2[nH]1 (stereo partly drawn) [Example 28]	0.063	0.015
COC(=O)N[C@H](C(=O)N1CCC[C@H]1c1ncc(-c2ccc(-c3ccc(-c4ccc5nc([C@@H]6CCCN6C(=O)[C@@H](NC(=O)OC)C(C)C)[nH]c5c4)c4c3C3CCC4C3)s2)[nH]1)C(C)C (stereo partly drawn) [Example 38]	0.064	0.017
COC(=O)N[C@H](C(=O)N1CCC[C@H]1c1ncc(-c2ccc(-c3ccc(-c4ccc5nc([C@@H]6CCCN6C(=O)[C@@H](NC(=O)OC)C(C)C)[nH]c5c4)c4c3C3CCC4C3)nc2)[nH]1)C(C)C (stereo partly drawn) [Example 41]	0.067	0.01
COC(=O)N[C@@H](C)C(=O)N1CCCC[C@H]1c1ncc(-c2ccc(-c3ccc(-c4ccc5nc([C@@H]6CCCCN6C(=O)[C@H](C)NC(=O)OC)[nH]c5c4)c4c3C3CCC4N3C)cc2)[nH]1 (stereo partly drawn) [Example 35]	0.103	0.017
COC(=O)N[C@H](C(=O)N1CCC[C@H]1c1ncc(-c2ccc(-c3ccc(-c4cnc([C@@H]5CCCN5C(=O)[C@@H](NC(=O)OC)C(C)C)[nH]4)c4c3C3CCC4C3)cc2)[nH]1)C(C)C (stereo partly drawn) [Example 18]	0.138	0.014
COC(=O)N[C@H](C(=O)N1CCC[C@H]1c1nc2cc(-c3ccc(-c4ccc(-c5cnc([C@H]6CCCN6C(=O)[C@@H](NC(=O)OC)C(C)C)[nH]5)cc4)c4c3C3CCC4C3)ccc2[nH]1)c1ccccc1 (stereo partly drawn) [Example 8]	0.033	0.019
[2H]C([2H])([2H])C([2H])(C([2H])([2H])[2H])[C@]([2H])(NC(=O)OC)C(=O)N1CCC[C@H]1c1ncc(-c2ccc(-c3ccc(-c4cnc([C@@H]5CC6CC6N5C(=O)[C@@]([2H])(NC(=O)OC)C([2H])(C([2H])([2H])[2H])C([2H])([2H])[2H])[nH]4)cc3)c3c2C2CCC3C2)[nH]1 (stereo partly drawn) [Example 76]	0.127	0.013
COC(=O)N[C@H](C(=O)N1C[C@H](C)C[C@H]1c1ncc(-c2ccc(-c3ccc(-c4cnc([C@@H]5C[C@H](C)CN5C(=O)[C@@H](NC(=O)OC)C(C)C)[nH]4)c4c3C3CCC4N3C)cc2)[nH]1)C(C)C (stereo partly drawn) [Example 33]	0.038	0.009
COC(=O)N[C@H](C(=O)N1CCC[C@H]1c1ncc(-c2ccc(-c3nnc(-c4ccc5[nH]c([C@@H]6CCCN6C(=O)[C@@H](NC(=O)OC)C(C)C)nc5c4)c4c3C3CCC4CC3)cc2)[nH]1)C(C)C [Example 11]	0.049	0.023
COC(=O)N[C@H](C(=O)N1C[C@@H](C)C[C@H]1c1ncc(-c2ccc(-c3ccc(-c4cnc([C@@H]5C[C@H](C)CN5C(=O)[C@@H](NC(=O)OC)C(C)C)[nH]4)c4c3C3CCC4C3)cc2)[nH]1)C(C)C (stereo partly drawn) [Example 20]	< 0.001	0.045
COC(=O)N[C@H](C(=O)N1CCC[C@H]1c1nc2cc(-c3ccc(-c4ccc5[nH]c([C@@H]6CCCN6C(=O)[C@@H](NC(=O)OC)C(C)C)nc5c4)c4c3C3CCC4C3)ccc2[nH]1)C(C)C [Example 6]	0.047	0.006
COC(=O)N[C@H](C(=O)N1CCC[C@H]1c1ncc(-c2ccc(-c3ccc(-c4ccc(-c5cnc([C@@H]6CCCN6C(=O)[C@@H](NC(=O)OC)C(C)C)[nH]5)cc4)c4c3C3CCC4C3)cc2)[nH]1)C(C)C [Example 5]	1.05	0.098
COC(=O)N[C@H](C(=O)N1CCS[C@H]1c1ncc(-c2ccc(-c3ccc(-c4cnc([C@@H]5SCCN5C(=O)[C@@H](NC(=O)OC)C(C)C)[nH]4)c4c3C3CCC4C3)cc2)[nH]1)C(C)C (stereo partly drawn) [Example 46]	0.439	0.035
[2H]C([2H])([2H])C([2H])(C([2H])([2H])[2H])[C@]([2H])(NC(=O)OC)C(=O)N1CCC[C@H]1c1ncc(-c2ccc(-c3ccc(-c4cnc([C@@H]5CCCN5C(=O)[C@@]([2H])(NC(=O)OC)C([2H])(C([2H])([2H])[2H])C([2H])([2H])[2H])[nH]4)c4c3C3CCC4C3)c(F)c2)[nH]1 (stereo partly drawn) [Example 77]	0.206	0.009
COC(=O)N[C@H](C(=O)N1CCC[C@H]1c1ncc(-c2ccc(-c3ccc(-c4ccc5nc([C@@H]6CCCN6C(=O)[C@@H](NC(=O)OC)C(C)C)[nH]c5c4)c4c3C3CCC4C3)cc2)[nH]1)C(C)C (stereo partly drawn) [Example 17]	0.767	0.007
COC(=O)N[C@H](C(=O)N1C[C@H](C)C[C@H]1c1ncc(-c2ccc(-c3ccc(-c4cnc([C@@H]5C[C@@H](C)CN5C(=O)[C@@H](NC(=O)OC)C(C)C)[nH]4)c4c3C3CCC4CC3)cc2)[nH]1)C(C)C [Example 59]	0.037	0.008
COC(=O)N[C@H](C(=O)N1CCC[C@H]1c1ncc(-c2ccc(-c3ccc(-c4ccc(-c5cnc([C@@H]6CCCN6C(=O)[C@@H](NC(=O)OC)C(C)C)[nH]5)cc4)c4c3C3CCC4O3)cc2)[nH]1)C(C)C [Example 63]	2.25	0.815
COC(=O)N[C@H](C(=O)N1CCCC1c1ncc(C#Cc2ccc(C#Cc3cnc([C@@H]4CCCN4C(=O)[C@@H](NC(=O)OC)C(C)C)[nH]3)c3c2C2CCC3C2)[nH]1)C(C)C (stereo partly drawn) [Example 19]	0.087	0.026
COC(=O)N[C@H](C(=O)N1CCC[C@H]1c1ncc(-c2ccc(-c3ccc(-c4cnc([C@@H]5CCCN5C(=O)[C@@H](NC(=O)OC)C5CCCCC5)[nH]4)c4c3C3CCC4C3)cc2)[nH]1)C1CCCCC1 (stereo partly drawn) [Example 10]	0.374	0.013
COC(=O)N[C@H](C(=O)N1CCC[C@H]1c1ncc(-c2ccc3cc(-c4ccc(-c5cnc([C@@H]6CCCN6C(=O)[C@@H](NC(=O)OC)C(C)C)[nH]5)c5c4C4CCC5C4)ccc3c2)[nH]1)C(C)C (stereo partly drawn) [Example 48]	0.043	0.029
COC(=O)N[C@H](C(=O)N1CCC[C@H]1C(=O)Nc1ccc(-c2ccc(-c3ccc(NC(=O)[C@@H]4CCCN4C(=O)[C@@H](NC(=O)OC)C(C)C)cc3)c3c2C2CCC3C2)cc1)C(C)C [Example 43]	1.13	0.073
COC(=O)N[C@H](C(=O)N1CCC[C@H]1c1ncc(-c2ccc(-c3ccc(-c4cnc([C@@H]5CCCN5C(=O)[C@@H](NC(=O)OC)C(C)C)[nH]4)c4c3C3CCC4C3)s2)[nH]1)C(C)C (stereo partly drawn) [Example 40]	0.083	0.012
CCC(C)[C@H](NC(=O)OC)C(=O)N1CCC[C@H]1c1nc2cc(-c3ccc(-c4ccc(-c5cnc([C@@H]6CCCN6C(=O)[C@@H](NC(=O)OC)C(C)C)[nH]5)cc4)c4c3C3CCC4C3)ccc2[nH]1 (stereo partly drawn) [Example 9]	0.104	0.009
COC(=O)N[C@H](C(=O)N1CCC[C@H]1c1nc2ccc(-c3ccc(-c4ccc5nc([C@@H]6CCCN6C(=O)[C@@H](NC(=O)OC)C(C)C)[nH]c5c4)c4c3C3CCC4N3C)cc2[nH]1)C(C)C [Example 25]	0.083	0.032

From patent US9309231B2, “Bridged ring compounds as hepatitis C virus (HCV) inhibitors and pharmaceutical applications thereof” (SUNSHINE LAKE PHARMA CO., LTD, priority 2012, dated 2016)
